How the values were obtained:
Assay type in all cases: cell-based, human
[1] = tested on: ETC components (UQCRC2, COXII, NDUFB8) in PA cell line Fb859 and MMA cell line Fb857; assay: Detection of ETC components by western blots; details: FIG. 11; 72 h treatment
Procedure: FIG. 11 are western blots showing correction in the signals of Complex III subunit Core 2 48-kDa (UQCRC2), Complex IV subunit II 22-kDa (COXII), and Complex I subunit NDUFB8 18-kDa that is most pronounced in the propionic acidemia (PA) cell line Fb859 compared to the methylmalonic aciduria (MMA) cell line Fb857.
Detection of ETC components by western blots: Same as above, media A for control, and media B for untreated and treated cells in T75 flasks. Amounts of compounds were added appropriately directly to cell culture media when the cultures were about 85-90 confluent. The cultures were allowed to grow for 72 h at 37° C./5% CO2, and then harvested. Harvested cell pellets were stored at −80° C. until immune and enzymatic assay and western blot analyses of OXPHOS subunits. One to 1.5 ml media samples were also stored at −80° C. for.

HEK293 PCCA−/− cells = assay: Lysine succinylation of cellular proteins by immunofluorescence confocal microscopy; details: FIGS. 9C, 9D; 30 μM and 90 μM; media without glucose, pyruvate, and glutamine
Procedure: FIGS. 9A-9F are a comparison of lysine succinylation of cellular proteins visualized by immunofluorescence confocal microscopy in human HEK293 control and HEK293 PCCA^−/− cells untreated (FIGS. 9A and 9B) and treated with 30 μM and 90 μM of PMA007 (FIG. 9C) or 30 μM and 90 μM of PMA010 (FIG. 9D). The cells in FIGS. 9B, 9C, and 9D were grown in media without glucose, pyruvate, and glutamine. Scale bar=20 μm. FIG. 9E is a bar graph showing the quantification of the percent change in lysine succinylation (green) signal, from the immunofluorescence confocal micrographs of FIGS. 9B and 9C, in response to the treatment of PMA007. FIG. 9F is a bar graph showing the quantification of the percent change in lysine succinylation (green) signal, from the immunofluorescence confocal micrographs of FIGS. 9B and 9D, in response to the treatment of PMA010. Asterisks indicate statistical significance calculated at the raw data level (n=3); **P<0.01. ****P<0.0001 statistically compared to untreated. Statistical analysis used T-test.
FIGS. 9A-9F are a comparison of lysine succinylation of cellular proteins visualized by immunofluorescence confocal microscopy in human HEK293 control and in untreated and treated HEK293 PCCA^−/− knock out cells. […] The PMA007 treatment data in the bar graph of FIG. 9E are the quantitation of the images of FIG. 9C compared to untreated control in FIG. 9B. […]

PA patient cells, Fb859 = assay: Measurement of mitochondrial respiration (Seahorse XF MitoStress test, OCR); details: FIGS. 12A-12D; 30 μM and 90 μM for 72 h
Procedure: Measurement of Mitochondrial Respiration Seahorse: Fb859 cells were grown in regular DMEM media until 85-90% confluency. The cells were harvested and seeded at a concentration of 25,000 cells/80 μl (n=8 replicates) in poly-D lysine coated XFe seahorse 96well plate in regular DMEM media and incubated overnight at 37° C. in a 5% CO2 incubator. Following day, the culture media was replaced in designated wells with the following for 72 h:180 μl of Specialty Media A (seahorse XFDMEM base media+10% fat stripped FBS+Glucose+sodium pyruvate+L-glutamine+0.5 mM carnitine). 180 μl of Specialty Media B (scahorse XFDMEM base media+10% stripped FBS+0.5 mM carnitine and no added glucose, sodium pyruvate or glutamine). 180 μl of Specialty media B containing experimental compounds. After 72 h incubation the Specialty media A & B was replaced in respective designated wells with 180 μL Seahorse XF DMEM base media containing glucose, sodium pyruvate. […] OCR was determined (Seahorse XF MitoStress test). Finally, cells were lysed, and protein content was determined. […]
Measurement of Mitochondrial Respiration: Control Fb826 and Patient Fb859 cells were grown in regular DMEM media without adding extra glutamine until 85-90% confluency. […] Oxygen consumption rate (OCR) was determined (Seahorse XF MitoStress test). Finally, cells were lysed, and protein content was determined. […]

## C[C@@H](NC(=O)CCCCC(=O)O)C(=O)N[C@H](Cc1c[nH]cn1)C(=O)O [PMA010, 6-(((R)-1-(((R)-1-carboxy-2-(1H-imidazol-4-yl)ethyl)amino)-1-oxopropan-2-yl)amino)-6-oxohexanoic acid]
[1]
  correction in the signals of UQCRC2, COXII and NDUFB8 (western blot): better effect compared to PMA007
HEK293 PCCA−/− cells
  lysine succinylation (green) signal: green color was restored
PA patient cells, Fb859
  oxygen consumption parameters compared to individual components D-Serine and D-Histidine: improved
